Legend:
[1] = system: panel of DLBCL cell lines; assay: CellTiter-Glo proliferation, Compound 1 with BET inhibitor Compound B; format: cell-based; conditions: Combinations of Compound B and Compound 1; 40 DLBCL cell lines; 5 days
Experimental: A panel of DLBCL cell lines in the following table were treated with single-agent Compound 1, single agent Compound B (a BET inhibitor), along with the combinations of Compound 1 and Compound B, at a concentration range to investigate the antiproliferative activities.
Experimental procedures: CellTiter-Glo (CTG), a luminescent dye that measures adenosine-5′-triphosphate (ATP), was used to quantify the cell proliferation across a panel of 40 unique DLBCL cell lines. Single agents and combinations were pre-spotted into 384-well plates (diluted in final dimethyl sulfoxide [DMSO] concentration of 0.1% for a maximal volume of 50 μL). […]
For each DLBCL cell line, 50 μL of cell suspension at their respective seeding densities of 0.025 to 0.2×10^6 cells per mL were added to 384-well plates containing the compounds. The effect of the single agents and combinations on the proliferation/viability of cells was assessed after 5 days of incubation. Twenty-five microliters of CTG per well was then dispensed to the cell suspension, and ATP released by viable cells was measured after a 30-minute incubation as relative luminescence units (RLU) using an EnVision plate reader (PerkinElmer, Covina, CA). […]

[2] = system: WSU-DLCL2 DLBCL xenograft tumors; assay: WSU-DLCL2 (DLBCL) xenograft model, Compound 1 alone and with tazemetostat; format: in vivo, female SCID mice
Experimental: (§1) Anti-tumor activity of Compound 1 alone and in combination with tazemetostat was studied in WSU-DLCL2 (DLBCL) xenograft model. Compound 1 (1 mg/kg) was administered once daily for 5 consecutive days followed by 2 days off (5 D on/2 D off) and tazemetostat (200 mg/kg) was administered twice daily (BID).
(§2) Methods: Xenograft study was conducted with female SCID mice bearing WSU-DLCL2 DLBCL xenograft tumors. Female SCID mice were inoculated subcutaneously with WSU-DLCL2 cells in the flank region above the right hind leg. Following inoculation of animals, the tumors were allowed to grow to approximately 200 mm^3 prior to randomization. On day 14 following tumor cell inoculation, the mice bearing WSU-DLCL2 tumors ranging between 150 and 250 mm^3 were pooled together and randomized into various treatment groups. Compound 1 was formulated in 0.5% Methyl Cellulose, 0.25% Tween 80 and 50 mM Citrate pH 3 in water. Tazemetostat was formulated in CMC-Tween. Compound 1 (1 mg/kg) was orally administered with three cycles of once daily for 5 consecutive days followed by 2 days off starting from day 14 after tumor cell inoculation. Tazemetostat 200 mg/kg) was orally administered twice day (BID) for three weeks. In combination group the animals received Compound 1 (1 mg/kg/5 D on/2 D off) and tazemetostat (200 mg/kg, BID) simultaneously for three weeks starting from day 14 after tumor cell inoculation. Tumors were measured twice a week using calipers and tumor volumes were calculated using the formula of W^2×L/2. Statistical analysis was performed using a one-way or 2-way analysis of variance (ANOVA). Synergy calculations were performed using fractional product method.

[3] = system: DB DLBCL xenograft tumors; assay: DB (DLBCL) xenograft model, Compound 1 alone and with tazemetostat; format: in vivo, female SCID mice; conditions: for tumor volume reduction: 5 D on/2 D off
Experimental: as §1, with “DB” for “WSU-DLCL2”, “(3, 10 or 30” for “(1”
as §2, with “bearing DB” for “bearing WSU-DLCL2”, “with DB” for “with WSU-DLCL2”, “day 33” for “day 14”, “1 (3, 10 or 30” for “1 (1”, “Tazemetostat (200” for “Tazemetostat 200”, “1 (3, 10 or 30 mg/kg, 5” for “1 (1 mg/kg/5”

## O=C1CC[C@H](N2C(=O)c3cccc(NCc4ccc(CN5CC(N6CCOCC6)C5)cc4F)c3C2=O)C(=O)N1 [Compound 1, (S)-2-(2,6-dioxopiperidin-3-yl)-4-((2-fluoro-4-((3-morpholinoazetidin-1-yl)methyl)benzyl)amino)isoindoline-1,3-dione]
[1]
  combination effect on proliferation (Bliss independence and HSA models): synergy and additivity in the majority of DLBCL cell lines
[2]; Compound 1 1 mg/kg and tazemetostat 200 mg/kg
  combination antitumor activity (fractional product method): synergistic
[2]; Compound 1 1 mg/kg in combination with tazemetostat 200 mg/kg
  tumor volume reduction compared to vehicle control: 93.7%
[2]; single agent Compound 1 1 mg/kg oral, 5 D on/2 D off, three cycles
  inhibition of tumor growth: −45.6%
[3]; Compound 1 3 mg/kg in combination with tazemetostat 200 mg/kg
  tumor volume reduction compared with vehicle control: 99.1%
[3]; Compound 1 10 mg/kg in combination with tazemetostat 200 mg/kg
  tumor volume reduction compared with vehicle control: 100%
[3]; Compound 1 30 mg/kg in combination with tazemetostat 200 mg/kg
  tumor volume reduction compared with vehicle control: 100%
[3]; Compound 1 at 3, 10 or 30 mg/kg and tazemetostat at 200 mg/kg
  combination antitumor activity (fractional product method): synergistic
[3]; single agent Compound 1 3 mg/kg oral
  tumor volume reduction: 16.9%
[3]; single agent Compound 1 10 mg/kg oral
  tumor volume reduction: 41.11%
[3]; single agent Compound 1 30 mg/kg oral
  tumor volume reduction: 48.9%
[3]; tazemetostat in combination with 3 mg/kg Compound 1
  animals tumor free: 90%
[3]; tazemetostat in combination with 10 mg/kg Compound 1
  animals tumor free: 100%
[3]; tazemetostat in combination with 30 mg/kg Compound 1
  animals tumor free: 100%
